According to ChEMBL document CHEMBL4715861, “Design, synthesis and biological evaluation of new bivalent quinazoline analogues as IAP antagonists” (Bioorg Med Chem Lett, 2021):
The source made the active and inactive calls. No cut-off for these calls is given here.

Legend:
MDA-MB-231 [1] = assay: Cytotoxicity against human MDA-MB-231 cells; format: functional, cell-based
Cytochrome P450 3A4 = Cytochrome P450 3A4 (Homo sapiens, UniProt P08684); assay: Inhibition of CYP3A4 (unknown origin); format: ADME
MDA-MB-231 [2] = assay: Antitumour activity against in human MDA-MB-231 cells xenografted in mouse assessed as reduction in tumour burdens at 3 mg/kg, iv administered for 14 days and measured after 30 days; format: functional, organism-based; settings: time 14.0 day
[3] = Toxicity in mouse xenografted with human MDA-MB-231 cells assessed as reduction in weight at 3 mg/kg, iv administered for 14 days and measured after 30 days; format: organism-based; settings: in vivo, 336 h, time 14 day
MIA PaCa-2 = assay: Cytotoxicity against human MIA PaCa-2 cells; format: functional, cell-based
Cytochrome P450 1A2 = target: T1, Cytochrome P450 1A2 (Homo sapiens, UniProt P05177); assay: Inhibition of CYP1A2 (unknown origin); format: ADME
T1 sequence (P05177 whole entry): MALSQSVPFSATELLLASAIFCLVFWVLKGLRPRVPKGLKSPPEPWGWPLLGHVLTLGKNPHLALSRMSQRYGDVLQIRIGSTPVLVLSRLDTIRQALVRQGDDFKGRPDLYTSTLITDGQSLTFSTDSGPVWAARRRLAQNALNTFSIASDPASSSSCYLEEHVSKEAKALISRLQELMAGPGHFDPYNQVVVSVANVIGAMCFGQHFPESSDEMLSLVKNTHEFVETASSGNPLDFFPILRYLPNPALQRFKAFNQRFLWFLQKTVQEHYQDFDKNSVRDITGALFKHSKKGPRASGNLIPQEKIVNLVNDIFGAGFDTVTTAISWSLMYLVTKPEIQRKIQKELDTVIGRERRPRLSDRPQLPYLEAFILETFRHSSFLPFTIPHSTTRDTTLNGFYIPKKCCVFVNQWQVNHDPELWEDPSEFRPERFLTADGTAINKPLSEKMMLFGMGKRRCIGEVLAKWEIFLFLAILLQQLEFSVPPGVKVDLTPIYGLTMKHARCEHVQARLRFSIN

[4] = Stability in human microsomes assessed as parent compound remaining at 60 mins; format: ADME, Microsome; settings: read-out: Stabilty
Cytochrome P450 2C19 = Cytochrome P450 2C19 (Homo sapiens, UniProt P33261); assay: Inhibition of CYP2C19 (unknown origin); format: ADME
MDA-MB-231 [5] = assay: Cytotoxicity against human MDA-MB-231 cells assessed as cell viability at 5 nM (reference value: 98%); format: functional; settings: read-out: Activity
MDA-MB-231 [6] = assay: Cytotoxicity against human MDA-MB-231 cells assessed as cell viability at 1 nM (reference value: 98%); format: functional; settings: read-out: Activity
MDA-MB-468 = assay: Cytotoxicity against human MDA-MB-468 cells; format: functional, cell-based
Cytochrome P450 2D6 = Cytochrome P450 2D6 (Homo sapiens, UniProt P10635); assay: Inhibition of CYP2D6 (unknown origin); format: ADME
[7] = target: T2, E3 ubiquitin-protein ligase XIAP (Homo sapiens, UniProt P98170); assay: Binding affinity to human XIAP-BIR3 (241 to 356 residues)
MDA-MB-231 [8] = assay: Cytotoxicity against human MDA-MB-231 cells assessed as cell viability at 2 nM (reference value: 98%); format: functional; settings: read-out: Activity
OVCAR-3 = assay: Cytotoxicity against human OVCAR-3 cells; format: functional, cell-based
[9] = target: T2, E3 ubiquitin-protein ligase XIAP; assay: Antagonist activity at XIAP in human MDA-MB-231 cells assessed as fold change in Caspase-9 activation at 1 nM; format: cell-based; settings: filed as antagonist
[10] = target: Baculoviral IAP repeat-containing protein 3 (Homo sapiens) (UniProt Q13489); assay: Induction of degradation of cIAP2-BIR3 domain in human MDA-MB-231 cells; format: cell-based; settings: dose 1-5 nM
[11] = target: Baculoviral IAP repeat-containing protein 2 (Homo sapiens) (UniProt Q13490); assay: Induction of degradation of cIAP1-BIR3 domain in human MDA-MB-231 cells; format: cell-based; settings: dose 1-5 nM
[12] = Stability in mouse microsomes assessed as parent compound remaining at 60 mins; format: ADME, Microsome; settings: read-out: Stabilty
MCF7 = assay: Cytotoxicity against human MCF7 cells; format: functional, cell-based
BXPC-3 = assay: Cytotoxicity against human BxPC3 cells; format: functional, cell-based
J82 = assay: Cytotoxicity against human J82 cells; format: functional, cell-based
[13] = target: T2, E3 ubiquitin-protein ligase XIAP; assay: Induction of degradation of XIAP-BIR3 domain in human MDA-MB-231 cells; format: cell-based; settings: dose 1-5 nM
HS27 = assay: Cytotoxicity against human HS27 cells; format: cell-based
PANC-1 = assay: Cytotoxicity against human PANC-1 cells; format: functional, cell-based
[14] = Stability in rat microsomes assessed as parent compound remaining at 60 mins; format: ADME, Microsome; settings: read-out: Stabilty
[15] = Stability in dog microsomes assessed as parent compound remaining at 60 mins; format: ADME, Canis lupus familiaris, Microsome; settings: read-out: Stabilty
Cytochrome P450 2C9 = Cytochrome P450 2C9 (Homo sapiens, UniProt P11712); assay: Inhibition of CYP2C9 (unknown origin); format: ADME
[16] = target: T2, E3 ubiquitin-protein ligase XIAP; assay: Antagonist activity at XIAP in human MDA-MB-231 cells assessed as fold change in Caspase-3 activation at 1 nM; format: cell-based; settings: filed as antagonist
[17] = Toxicity in mouse xenografted with human MDA-MB-231 cells assessed as inflammation around injection site at 3 mg/kg, iv after 6 days; format: organism-based; settings: in vivo, 144 h, time 6 day

T2 sequence (P98170 whole entry, the tested form may be a part): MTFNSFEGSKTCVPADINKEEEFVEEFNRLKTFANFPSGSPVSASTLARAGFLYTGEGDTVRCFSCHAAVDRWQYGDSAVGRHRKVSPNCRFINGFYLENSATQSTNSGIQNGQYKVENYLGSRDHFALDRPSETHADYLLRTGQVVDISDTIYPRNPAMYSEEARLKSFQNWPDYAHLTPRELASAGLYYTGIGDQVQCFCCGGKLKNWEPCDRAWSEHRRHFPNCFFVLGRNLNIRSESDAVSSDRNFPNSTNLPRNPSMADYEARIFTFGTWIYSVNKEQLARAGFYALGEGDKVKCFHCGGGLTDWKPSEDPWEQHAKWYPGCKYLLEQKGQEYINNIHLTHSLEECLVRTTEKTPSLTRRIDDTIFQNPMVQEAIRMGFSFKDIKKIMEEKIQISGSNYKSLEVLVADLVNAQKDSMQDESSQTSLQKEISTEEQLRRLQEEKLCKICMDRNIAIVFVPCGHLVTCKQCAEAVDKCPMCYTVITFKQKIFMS
Chain of Cytochrome P450 3A4 (P08684 whole entry): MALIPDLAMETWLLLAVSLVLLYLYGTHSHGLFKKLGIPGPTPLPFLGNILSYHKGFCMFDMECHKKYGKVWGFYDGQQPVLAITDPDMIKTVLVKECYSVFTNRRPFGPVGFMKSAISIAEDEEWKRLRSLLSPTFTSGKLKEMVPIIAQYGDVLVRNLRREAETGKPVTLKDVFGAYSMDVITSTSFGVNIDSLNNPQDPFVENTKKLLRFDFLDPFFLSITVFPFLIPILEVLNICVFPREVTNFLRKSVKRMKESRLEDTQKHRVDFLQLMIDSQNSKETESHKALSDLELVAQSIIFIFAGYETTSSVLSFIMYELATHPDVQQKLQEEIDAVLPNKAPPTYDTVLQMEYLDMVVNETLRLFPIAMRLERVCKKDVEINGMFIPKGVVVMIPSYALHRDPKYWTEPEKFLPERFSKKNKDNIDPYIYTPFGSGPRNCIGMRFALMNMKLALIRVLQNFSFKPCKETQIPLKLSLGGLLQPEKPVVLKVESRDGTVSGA
Chain of Cytochrome P450 2D6 (P10635 whole entry, the tested form may be a part): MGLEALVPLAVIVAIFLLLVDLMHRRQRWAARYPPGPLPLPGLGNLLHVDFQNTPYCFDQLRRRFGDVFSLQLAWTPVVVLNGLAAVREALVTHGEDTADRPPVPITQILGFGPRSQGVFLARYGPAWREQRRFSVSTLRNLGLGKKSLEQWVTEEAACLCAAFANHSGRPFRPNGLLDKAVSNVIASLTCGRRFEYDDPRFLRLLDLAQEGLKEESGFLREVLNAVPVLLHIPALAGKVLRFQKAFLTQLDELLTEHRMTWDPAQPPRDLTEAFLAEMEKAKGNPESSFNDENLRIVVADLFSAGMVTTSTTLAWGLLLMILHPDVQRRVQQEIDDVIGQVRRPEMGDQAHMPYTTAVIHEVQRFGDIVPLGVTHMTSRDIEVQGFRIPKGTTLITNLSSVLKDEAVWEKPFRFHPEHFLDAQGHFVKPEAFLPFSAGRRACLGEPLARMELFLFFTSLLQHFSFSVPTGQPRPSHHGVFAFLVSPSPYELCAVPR
Chain of Cytochrome P450 2C9 (P11712 whole entry): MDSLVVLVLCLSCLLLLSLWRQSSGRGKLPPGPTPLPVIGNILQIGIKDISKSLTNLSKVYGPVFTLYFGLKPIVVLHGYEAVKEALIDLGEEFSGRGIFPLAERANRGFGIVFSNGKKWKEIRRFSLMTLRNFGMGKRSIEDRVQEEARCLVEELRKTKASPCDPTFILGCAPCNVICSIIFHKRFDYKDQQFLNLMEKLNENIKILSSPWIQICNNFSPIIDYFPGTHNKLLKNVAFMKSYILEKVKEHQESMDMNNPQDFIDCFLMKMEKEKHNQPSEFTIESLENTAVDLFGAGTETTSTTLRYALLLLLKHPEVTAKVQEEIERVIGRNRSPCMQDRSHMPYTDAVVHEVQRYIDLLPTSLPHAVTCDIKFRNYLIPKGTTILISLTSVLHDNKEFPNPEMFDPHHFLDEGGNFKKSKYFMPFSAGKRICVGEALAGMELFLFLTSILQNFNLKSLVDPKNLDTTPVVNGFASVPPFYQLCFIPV
Chain of Cytochrome P450 2C19 (P33261 whole entry): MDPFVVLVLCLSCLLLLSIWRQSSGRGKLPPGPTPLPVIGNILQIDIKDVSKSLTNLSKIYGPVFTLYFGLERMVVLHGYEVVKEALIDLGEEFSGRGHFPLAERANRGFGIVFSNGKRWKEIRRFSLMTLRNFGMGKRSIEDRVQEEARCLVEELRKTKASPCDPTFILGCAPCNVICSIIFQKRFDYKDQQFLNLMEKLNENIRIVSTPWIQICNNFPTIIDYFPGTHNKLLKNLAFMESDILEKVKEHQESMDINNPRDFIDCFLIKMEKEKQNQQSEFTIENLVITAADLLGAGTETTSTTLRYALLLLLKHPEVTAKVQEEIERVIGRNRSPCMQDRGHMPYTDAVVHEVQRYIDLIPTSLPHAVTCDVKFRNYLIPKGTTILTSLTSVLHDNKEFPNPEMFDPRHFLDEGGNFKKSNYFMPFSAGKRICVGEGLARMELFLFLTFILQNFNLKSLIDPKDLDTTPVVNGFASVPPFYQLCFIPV
Chain of Baculoviral IAP repeat-containing protein 3 (Homo sapiens) (Q13489 whole entry, the tested form may be a part): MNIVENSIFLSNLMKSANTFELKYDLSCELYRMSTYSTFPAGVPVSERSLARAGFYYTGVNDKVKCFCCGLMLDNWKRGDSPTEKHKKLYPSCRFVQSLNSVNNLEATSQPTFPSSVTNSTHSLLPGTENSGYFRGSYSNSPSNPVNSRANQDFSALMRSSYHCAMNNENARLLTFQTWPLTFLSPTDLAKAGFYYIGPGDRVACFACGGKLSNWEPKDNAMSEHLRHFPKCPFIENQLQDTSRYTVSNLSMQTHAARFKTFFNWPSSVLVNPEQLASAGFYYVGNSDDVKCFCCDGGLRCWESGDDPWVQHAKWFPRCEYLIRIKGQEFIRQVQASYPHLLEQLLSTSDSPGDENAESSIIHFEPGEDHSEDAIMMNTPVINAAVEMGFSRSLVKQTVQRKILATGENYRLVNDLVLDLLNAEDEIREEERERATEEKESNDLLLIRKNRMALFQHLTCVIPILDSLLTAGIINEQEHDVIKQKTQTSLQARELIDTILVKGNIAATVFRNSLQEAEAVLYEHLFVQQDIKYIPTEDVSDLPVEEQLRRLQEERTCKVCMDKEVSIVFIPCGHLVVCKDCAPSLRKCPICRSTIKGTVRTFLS
Chain of Baculoviral IAP repeat-containing protein 2 (Homo sapiens) (Q13490 whole entry, the tested form may be a part): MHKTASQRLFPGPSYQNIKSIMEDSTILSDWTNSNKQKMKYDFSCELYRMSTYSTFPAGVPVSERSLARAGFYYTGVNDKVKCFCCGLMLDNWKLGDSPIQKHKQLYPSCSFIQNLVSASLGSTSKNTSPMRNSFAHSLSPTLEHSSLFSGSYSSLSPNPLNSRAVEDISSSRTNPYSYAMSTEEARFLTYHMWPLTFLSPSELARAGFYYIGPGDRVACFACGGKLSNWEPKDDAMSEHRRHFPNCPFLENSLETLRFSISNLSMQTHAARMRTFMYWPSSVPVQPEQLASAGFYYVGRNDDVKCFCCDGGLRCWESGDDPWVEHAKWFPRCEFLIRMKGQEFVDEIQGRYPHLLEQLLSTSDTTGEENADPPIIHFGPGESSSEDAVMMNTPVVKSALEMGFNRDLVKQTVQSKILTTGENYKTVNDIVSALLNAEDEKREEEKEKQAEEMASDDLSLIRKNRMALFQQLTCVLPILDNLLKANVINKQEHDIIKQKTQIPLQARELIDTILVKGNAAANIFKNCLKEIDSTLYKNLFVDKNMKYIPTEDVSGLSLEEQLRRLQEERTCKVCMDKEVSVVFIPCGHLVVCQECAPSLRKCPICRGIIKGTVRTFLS

## CN[C@@H](C)C(=O)N[C@H](C(=O)N1CCC[C@H]1C(=O)Nc1cc2c(NCCCCCCCCNc3ncnc4cc(OC)c(NC(=O)[C@@H]5CCCN5C(=O)[C@@H](NC(=O)[C@H](C)NC)C(C)(C)C)cc34)ncnc2cc1OC)C(C)(C)C
MDA-MB-231 [1]
  IC50: 0.0003 µM
Cytochrome P450 3A4
  IC50: 0.43 µM

## CN[C@@H](C)C(=O)N[C@H](C(=O)N1CCC[C@H]1C(=O)Nc1cc2c(OCC#CCOc3ncnc4cc(OC)c(NC(=O)[C@@H]5CCCN5C(=O)[C@@H](NC(=O)[C@H](C)NC)C(C)(C)C)cc34)ncnc2cc1OC)C(C)(C)C
MDA-MB-231 [1]
  IC50: 0.0004 µM
Cytochrome P450 3A4
  IC50: 0.86 µM

## CN[C@@H](C)C(=O)N[C@H](C(=O)N1CCC[C@H]1C(=O)Nc1cc2c(N[C@H]3CC[C@H](Nc4ncnc5cc(OC)c(NC(=O)[C@@H]6CCCN6C(=O)[C@@H](NC(=O)[C@H](C)NC)C(C)(C)C)cc45)CC3)ncnc2cc1OC)C(C)(C)C
MDA-MB-231 [2]
  Activity: Active
[3]
  Activity: Non-Toxic
MIA PaCa-2
  IC50: 0.0001 µM
Cytochrome P450 1A2
  IC50: > 50 µM
[4]
  remaining at 1 h: 86%
Cytochrome P450 2C19
  IC50: 35.7 µM
MDA-MB-231 [5]
  viability at 0.005 µM: 30%
MDA-MB-231 [6]
  viability at 0.001 µM: 67%
MDA-MB-231 [1]
  IC50: 0.00014 µM
MDA-MB-468
  IC50: 0.0278 µM
Cytochrome P450 2D6; read-out: IC50
  IC50: > 50 µM
[7]
  Ki: 0.064 µM
MDA-MB-231 [8]
  viability at 0.002 µM: 42%
OVCAR-3
  IC50: 0.0002 µM
[9]
  fold change (FC): 10.7
Cytochrome P450 3A4
  IC50: 3.56 µM
[10]
  Activity: Dose-dependent effect
[11]
  Activity: Dose-dependent effect
[12]
  remaining at 1 h: 94%
MCF7
  IC50: 0.0192 µM
BXPC-3
  IC50: 0.0002 µM
J82
  IC50: 0.0174 µM
[13]
  Activity: Dose-dependent effect
HS27
  IC50: > 10 µM
PANC-1
  IC50: 0.0009 µM
[14]
  remaining at 1 h: 100%
[15]
  remaining at 1 h: 63%
Cytochrome P450 2C9
  IC50: 43.6 µM
[16]
  fold change (FC): 3.4

## CN[C@@H](C)C(=O)N[C@H](C(=O)N1CCC[C@H]1C(=O)Nc1cc2c(N3CCN(c4ncnc5cc(OC)c(NC(=O)[C@@H]6CCCN6C(=O)[C@@H](NC(=O)[C@H](C)NC)C(C)(C)C)cc45)CC3)ncnc2cc1OC)C(C)(C)C
MDA-MB-231 [1]
  IC50: 0.0023 µM

## CN[C@@H](C)C(=O)N[C@H](C(=O)N1CCC[C@H]1C(=O)Nc1cc2c(NCC#CC#CCNc3ncnc4cc(OC)c(NC(=O)[C@@H]5CCCN5C(=O)[C@@H](NC(=O)[C@H](C)NC)C(C)(C)C)cc34)ncnc2cc1OC)C(C)(C)C
[4]
  remaining at 1 h: 64%
MDA-MB-231 [1]
  IC50: 0.0003 µM
[12]
  remaining at 1 h: 62%
[14]
  remaining at 1 h: 87%
[15]
  remaining at 1 h: 65%

## CN[C@@H](C)C(=O)N[C@H](C(=O)N1CCC[C@H]1C(=O)Nc1cc2c(Nc3ccc(OCC#CC#CCOc4ccc(Nc5ncnc6cc(OC)c(NC(=O)[C@@H]7CCCN7C(=O)[C@@H](NC(=O)[C@H](C)NC)C(C)(C)C)cc56)cn4)nc3)ncnc2cc1OC)C(C)(C)C
MDA-MB-231 [1]
  IC50: 0.0346 µM

## CN[C@@H](C)C(=O)N[C@H](C(=O)N1CCC[C@H]1C(=O)Nc1cc2c(NC[C@H]3CC[C@@H](CNc4ncnc5cc(OC)c(NC(=O)[C@@H]6CCCN6C(=O)[C@@H](NC(=O)[C@H](C)NC)C(C)(C)C)cc45)CC3)ncnc2cc1OC)C(C)(C)C
MDA-MB-231 [1]
  IC50: 0.00041 µM
Cytochrome P450 3A4
  IC50: < 0.62 µM

## CN[C@@H](C)C(=O)N[C@H](C(=O)N1CCC[C@H]1C(=O)Nc1cc2c(N[C@H]3CC[C@@H](Nc4ncnc5cc(OC)c(NC(=O)[C@@H]6CCCN6C(=O)[C@@H](NC(=O)[C@H](C)NC)C(C)(C)C)cc45)CC3)ncnc2cc1OC)C(C)(C)C
MDA-MB-231 [1]
  IC50: 0.00593 µM
Cytochrome P450 3A4
  IC50: 5.53 µM

## CN[C@@H](C)C(=O)N[C@H](C(=O)N1CCC[C@H]1C(=O)Nc1cc2c(NCc3ccc(CNc4ncnc5cc(OC)c(NC(=O)[C@@H]6CCCN6C(=O)[C@@H](NC(=O)[C@H](C)NC)C(C)(C)C)cc45)cc3)ncnc2cc1OC)C(C)(C)C
MDA-MB-231 [1]
  IC50: 0.0043 µM

## CN[C@@H](C)C(=O)N[C@H](C(=O)N1CCC[C@H]1C(=O)Nc1cc2c(NC[C@H]3CC[C@H](CNc4ncnc5cc(OC)c(NC(=O)[C@@H]6CCCN6C(=O)[C@@H](NC(=O)[C@H](C)NC)C6CCCCC6)cc45)CC3)ncnc2cc1OC)C1CCCCC1
MDA-MB-231 [1]
  IC50: 0.00103 µM
Cytochrome P450 3A4
  IC50: 0.66 µM

## CN[C@@H](C)C(=O)N[C@H](C(=O)N1CCC[C@H]1C(=O)Nc1cc2c(NC[C@H]3CC[C@H](CNc4ncnc5cc(OC)c(NC(=O)[C@@H]6CCCN6C(=O)[C@@H](NC(=O)[C@H](C)NC)C(C)(C)C)cc45)CC3)ncnc2cc1OC)C(C)(C)C
MDA-MB-231 [1]
  IC50: 0.00031 µM
Cytochrome P450 3A4
  IC50: 0.46 µM

## CN[C@@H](C)C(=O)N[C@H](C(=O)N1CCC[C@H]1C(=O)N(CCc1ccccc1)C(=O)C(F)(F)F)[C@H](C)OCC#CC#CCO[C@H](C)[C@H](NC(=O)[C@H](C)NC)C(=O)N1CCC[C@H]1C(=O)N(CCc1ccccc1)C(=O)C(F)(F)F
[17]
  Activity: Toxic

## CN[C@@H](C)C(=O)N[C@H](C(=O)N1CCC[C@H]1C(=O)Nc1cc2c(NCCOCCOCCNc3ncnc4cc(OC)c(NC(=O)[C@@H]5CCCN5C(=O)[C@@H](NC(=O)[C@H](C)NC)C(C)(C)C)cc34)ncnc2cc1OC)C(C)(C)C
MDA-MB-231 [1]
  IC50: 0.00504 µM
Cytochrome P450 3A4
  IC50: 5.65 µM

## CN[C@@H](C)C(=O)N[C@H](C(=O)N1CCC[C@H]1C(=O)Nc1cc2c(OCC#CC#CCOc3ncnc4cc(OC)c(NC(=O)[C@@H]5CCCN5C(=O)[C@@H](NC(=O)[C@H](C)NC)C(C)(C)C)cc34)ncnc2cc1OC)C(C)(C)C
Cytochrome P450 1A2
  IC50: > 50 µM
Cytochrome P450 2C19
  IC50: > 50 µM
MDA-MB-231 [1]
  IC50: 0.0002 µM
Cytochrome P450 2D6
  IC50: Not Active
Cytochrome P450 3A4
  IC50: 0.24 µM
Cytochrome P450 2C9
  IC50: 12.6 µM
